Reference: US9834514B2, “Antibiotic sensitivity-restoring and photosensitive agents” (New Mexico Tech Research Foundation, priority 2015, dated 2017)
Values after ≈ are worked out from the molar mass of the structure shown. Where two headings read alike, the source gives them in different places.

Key:
P. aeruginosa = test: Resensitization to antibiotics (log reduction, TABLE 29); format: cell-based; details: compound 20 μM
MRSA (ATCC BAA-44) = test: Synergy with oxacillin and norfloxacin and other antibiotics (colony counts); format: cell-based, S. aureus; details: for Orders of Magnitude with Norfloxacin / Orders of Magnitude with Oxacillin: increase in ability to kill MRSA versus drug or compound alone
Experimental: The synergy of compounds 1 and 7-11 with oxacillin and norfloxacin was tested against MRSA (ATCC BAA-44). An overnight culture of MRSA was first diluted to about 5×10^5 CFU/mL in TSB. Then, 1 mL of the diluted broth suspension was added to a borosilicate glass culture tube. An appropriate volume of a compound or an antibiotic drug stock was added to the broth suspension and mixed using a vortex mixer. Then an appropriate volume of an antibiotic was added to test synergy with compounds 7-11. The samples were subsequently mixed using a vortex mixer, and the samples were incubated for 18 hours at 37° C. on a rotary shaking incubator. After 18 hours, the test cultures were diluted ten-fold, 10 μL of each dilution was drip-streaked onto a TSA plate, and the samples were incubated for 18 hours at 37° C. Colony counts were then performed and the CFU/mL values were calculated.
TABLE 21 details the MIC values identified in the MRSA assay of compounds 1, 7, 8, 9, 10, 11, various antibiotics, and light.

VRE = test: MIC against VRE; format: cell-based, Enterococcus faecalis; details: Enterococcus, TABLE 23, read-out: VRE MIC
Experimental: In a 12×75 mm borosilicate glass culture tube, 1 mL of cell suspension was added. Then, compound 7 was added to the cells, and the samples were mixed using a vortex mixer. […] The samples were incubated overnight at 37° C. on a rotary shaking incubator at 100 rpm.

[1] = MIC against MRSA isolates; format: cell-based, S. aureus; details: Staphylococcus aureus
Experimental: The MICs of S. aureus ATCC 33591, BAA-44, BAA-1707, BAA-1717, BAA-1720, BAA-1747, BAA-1754, BAA-1761, BAA-1763, BAA-1764, and BAA-1766 were measured using a cell concentration of about 5×10^5 colony forming units (CFU)/mL. In a 96-well microtiter plate, two-fold dilutions were made of each drug (starting with 100 μM) in 100 μL of a cell suspension in trypticase soy broth (TSB). The samples were incubated overnight at 37° C. on a rotary shaking incubator set at 100 revolutions per minute (rpm) and were visually inspected for turbidity. A 20% well-volume of 3-(4,5-dimethylthiazol-2-yl)-2,5-diphenyltetrazolium bromide (MTT reagent, 5 mg/mL) was added, and the samples were incubated for about 20 minutes. The MICs were determined as the lowest concentration at which full visual inhibition was observed by the unaided eye.

CRE = test: Resensitization to antibiotics (log reduction, TABLE 29); format: cell-based
Experimental: (§1) In a 96-well microtiter plate, two-fold dilutions were made of each drug (starting with 100 μM) in 100 μL of a cell suspension in TSB. The resulting samples were incubated overnight at 37° C. on a rotary shaking incubator at 100 rpm. The samples were then visually inspected for turbidity. A 20% well volume of MTT reagent (5 mg/mL) was subsequently added, and the samples were incubated for about 20 minutes.

MRSA [2] = test: as above; format: cell-based, S. aureus
[3] = test system: A. baumannii (ATCC 15151); test: MIC against A. baumannii; format: cell-based; details: Acinetobacter baumannii, ATCC15151
Experimental: TABLE 28 details the individual MIC values of compounds 1, 7, 8, 9, 10, 11, PMB, PME, and light against A. baumannii.
(§2) The MICs of PME and compounds 8-11 were determined against A. baumannii (ATCC 15151). […] After incubating the cells with PME, a compound (5 μM) was added, and the samples were further incubated at 37° C. At specific time points, samples were taken and diluted ten-fold in media. Ten microliters of each dilution was then drip-streaked onto an agar plate and incubated overnight at 37° C. Colony counts were then performed, and the CFU/mL were calculated.

MRSA [4] = test: Resensitization to antibiotics (log reduction, TABLE 29); format: cell-based, S. aureus; remark: listed apart in the source
Experimental: as §1

[5] = test system: Klebsiella pneumoniae (CRE, ATCC BAA-1705); test: Time-dependent colony counts of CRE with compounds and PME; format: cell-based; details: PME 0.2 μg/mL, compound 20 μM; FIGS. 48, 49
Experimental: The MICs of PME and compounds 8-11 were determined against Klebsiella pneumoniae (CRE, ATCC BAA-1705). […] […] At specific time points, the samples were taken and diluted ten-fold in media. Ten microliters of each dilution was then drip-streaked onto an agar plate and incubated overnight at 37° C. Colony counts were then performed and the CFU/mL were calculated.

S. aureus (ATCC 29213) = test: microbe, parasite or virus in culture; format: cell-based
Experimental: Each mixture was incubated at 37° C. on a rotary shaking incubator for about 16 hours. MTT was then added to assess the viability of the cells (at 10% well volume). […] The cells were then streaked onto a TSA plate and incubated overnight at 37° C. These steps were repeated to reach a total of 30 exposures.

[6] = test system: A. baumannii (ATCC 15151); test: Time course of colony counts with compounds and PME or PMB; format: cell-based; details: FIG. 51
Experimental: as §2

[7] = (1/40) MIC compound + (1/30) MIC Tetracycline
[8] = (1/40) MIC compound + (1/31) MIC Dicloxicillin
[9] = (1/40) MIC compound + (1/50) MIC Dicloxicillin
[10] = (1/40) MIC compound + (1/50) MIC Norfloxacin
[11] = (1/40) MIC compound + (1/50) MIC Tobramycin
[12] = (1/40) MIC compound + (¼) MIC Oxacillin
[13] = (1/40) MIC compound + (⅙) MIC Vancomycin
[14] = compared to compound alone, FIGS. 34, 39, 41
[15] = MRSA (ATCC BAA-44), TABLE 21, read-out: MRSA MIC
[16] = MRSA isolate ATCC BAA-44, read-out: MIC
[17] = (⅓) MIC compound + (¼) MIC Norfloxacin
[18] = (⅓) MIC compound + (½) MIC Oxacillin

## Clc1ccc(/C=C/c2[nH]c3ccccc3c2/C=C/c2ccc(Cl)cc2)cc1 [Compound 1]
P. aeruginosa; PME (0.1 μg/mL)
  Log Reduction: 2
P. aeruginosa; PME (0.1 μg/mL) + Light (2 min)
  Log Reduction: 8
MRSA (ATCC BAA-44); [7]
  % Kill: 99.99%
  Surviving MRSA: 1.00 × 10^−5
MRSA (ATCC BAA-44); [8]
  % Kill: 99.99%
  Surviving MRSA: 1.00 × 10^−4
MRSA (ATCC BAA-44); [9]
  % Kill: 99.99%
  Surviving MRSA: 1.00 × 10^−8
MRSA (ATCC BAA-44); [10]
  % Kill: 99.99%
  Surviving MRSA: 1.00 × 10^−9
MRSA (ATCC BAA-44); [11]
  % Kill: 99.99%
  Surviving MRSA: 1.00 × 10^−9
MRSA (ATCC BAA-44); [12]
  % Kill: 99.99%
  Surviving MRSA: 1.00 × 10^−7
MRSA (ATCC BAA-44); [13]
  % Kill: 99.99%
  Surviving MRSA: 1.00 × 10^−9
MRSA (ATCC BAA-44); (1/40) MIC compound + Light
  % Kill: 99.99%
  Surviving MRSA: 1.00 × 10^−8
MRSA (ATCC BAA-44); TABLE 6
  Synergy with Norfloxacin: 5-log reduction
  Synergy with Oxacillin: 5-log reduction
MRSA (ATCC BAA-44); [14]
  log reduction in the number of surviving cells (CFU/mL), co-treatment with norfloxacin: ~5 log
  log reduction in the number of surviving cells (CFU/mL), co-treatment with oxacillin: ~5 log
MRSA (ATCC BAA-44)
  Orders of Magnitude with Norfloxacin: 9
  Orders of Magnitude with Oxacillin: >7
VRE
  MIC: > 200 µM
[1]; [15]
  MIC: 400 µM (≈ 156 µg/mL)
[1]; [16]
  MIC: 400 µM (≈ 156 µg/mL)
CRE; compound 5 μM, PMB (0.2 μg/mL) + Light (2 min)
  Log Reduction: 3
CRE; compound 10 μM, PME (0.1 μg/mL)
  Log Reduction: 9
CRE; compound 10 μM, PME (0.2 μg/mL) + Light (2 min)
  Log Reduction: 9
MRSA [2]; compound 1 μM, MRSA ATCC BAA-44, Light (2 min)
  Log Reduction: 8
MRSA [2]; compound 10 μM, Dicloxacillin (1 μg/mL)
  Log Reduction: 8
MRSA [2]; compound 10 μM, Doxycycline (0.1 μg/mL)
  Log Reduction: 4
MRSA [2]; compound 10 μM, Vancomycin (0.5 μg/mL)
  Log Reduction: 9
[3]
  MIC: > 100 µM
MRSA [4]; compound 1 μM, MRSA ATCC BAA-1717, Light (2 min)
  Log Reduction: 6
MRSA [4]; compound 10 μM, Norfloxacin (20 μg/mL)
  Log Reduction: 9
MRSA [4]; compound 10 μM, Oxacillin (100 μg/mL)
  Log Reduction: 7-8
MRSA [4]; compound 10 μM, Tetracycline (0.1 μg/mL)
  Log Reduction: 5-6
MRSA [4]; compound 10 μM, Tobramycin (100 μg/mL)
  Log Reduction: 9

## Brc1ccc(/N=N/c2c[nH]c3ccccc23)cc1 [Compound 8]
P. aeruginosa; PME (0.1 μg/mL)
  Log Reduction: 4
[5]
  CRE colony populations on simultaneous treatment with PME: reduced the CRE colony populations to sterility
MRSA (ATCC BAA-44); [17]
  % Kill: 99%
  Surviving MRSA: 1.00 × 10^−2
MRSA (ATCC BAA-44); [18]
  % Kill: 99.9%
  Surviving MRSA: 1.00 × 10^−3
MRSA (ATCC BAA-44); FIGS. 35-38
  MICs greater than cells treated with compound alone, with norfloxacin: two-fold
  MICs greater than cells treated with compound alone, with oxacillin: three-fold
MRSA (ATCC BAA-44)
  Orders of Magnitude with Norfloxacin: >2
  Orders of Magnitude with Oxacillin: >3
VRE
  MIC: 2 µM (≈ 0.6 µg/mL)
[1]; [15]
  MIC: 15 µM (≈ 4.5 µg/mL)
[1]; MRSA isolate ATCC 33591, read-out: MIC
  MIC: 3.1 to 6.3 µM (≈ 0.93 to 1.89 µg/mL)
[1]; [16]
  MIC: 15 µM (≈ 4.5 µg/mL)
[1]; MRSA isolate ATCC BAA-1707, read-out: MIC
  MIC: 6.3 µM (≈ 1.89 µg/mL)
[1]; MRSA isolate ATCC BAA-1717, read-out: MIC
  MIC: 6.3 µM (≈ 1.89 µg/mL)
[1]; MRSA isolate ATCC BAA-1720, read-out: MIC
  MIC: 6.3 µM (≈ 1.89 µg/mL)
[1]; MRSA isolate ATCC BAA-1747, read-out: MIC
  MIC: 6.3 µM (≈ 1.89 µg/mL)
[1]; MRSA isolate ATCC BAA-1754, read-out: MIC
  MIC: 12.5 µM (≈ 3.75 µg/mL)
[1]; MRSA isolate ATCC BAA-1761, read-out: MIC
  MIC: 12.5 µM (≈ 3.75 µg/mL)
[1]; MRSA isolate ATCC BAA-1763, read-out: MIC
  MIC: 6.3 µM (≈ 1.89 µg/mL)
[1]; MRSA isolate ATCC BAA-1764, read-out: MIC
  MIC: 12.5 µM (≈ 3.75 µg/mL)
[1]; MRSA isolate ATCC BAA-1766, read-out: MIC
  MIC: 12.5 µM (≈ 3.75 µg/mL)
S. aureus (ATCC 29213)
  Resistance Evolved: No
CRE; compound 20 μM, PMB (0.2 μg/mL)
  Log Reduction: 6
CRE; compound 20 μM, PME (0.2 μg/mL)
  Log Reduction: 6
[6]
  A. baumannii colony populations on treatment with compound and PME or PMB: reduced to sterility
MRSA [2]; compound 5 μM, Norfloxacin (25 μg/mL)
  Log Reduction: 2-3
MRSA [2]; compound 5 μM, Oxacillin (50 μg/mL)
  Log Reduction: 3-4
[3]
  MIC: > 100 µM
